Test [1] relates to TNF-alpha. Description: TNF-alpha ELISA in differentiated THP-1 cells infected with P. aeruginosa DNA. The test is classed as cell-based, human. The conditions noted are these: 6 micrograms P. aeruginosa DNA, 24 hours post infection; DNA alone 1,200. The method, then:
3 sets of differentiated THP-1 cells were infected with 6 micrograms of […], 6 micrograms of P. aeruginosa DNA and composition A from Table 1, above, 6 micrograms of P. aeruginosa DNA and moxifloxacin, or 6 micrograms of P. aeruginosa DNA, moxifloxacin and composition A. 24 hours post infection the cells were assayed for TNF-alpha protein levels via ELISA. Results of this study can be found in FIGS. 3A and 3B.

The test system of test [2] is TNF-alpha. Description: TNF-alpha ELISA in differentiated THP-1 cells infected with A. flavus DNA. It counts as cell-based, human. The conditions noted are these: 6 micrograms A. flavus DNA, 24 hours post infection; DNA alone 180. An excerpt:
Tumor Necrosis Factor alpha secretion (“TNF-alpha”) is a marker for DNA-induced inflammation. See, Campbell et al., CpG-containing immunostimulatory DNA sequences elicit TNF-alpha-dependent toxicity in rodents but not in humans, 2009, J Clin Invest, 119(9), 2564-2576. 3 sets of differentiated human leukemia monocytic (“differentiated THP-1”) cells were infected with 6 micrograms of A. flavus DNA, 6 micrograms of A. flavus DNA and composition A, 6 micrograms of A. flavus DNA and voriconazole, or 6 micrograms of A. flavus DNA, voriconazole and composition A. 24 hours post infection the cells were assayed for TNF-alpha protein levels via enzyme-linked immunosorbent assays (“ELISA”). Results of this study can be found in FIGS. 2A and 2B.
6 sets of differentiated THP-1 cells were infected with 1) nothing, 2) lipofectamine™ 2000 transfectin reagent, 3) 6 micrograms of A. flavus DNA, 4) 6 micrograms of A. flavus DNA and composition #1 from Table 1, above, 5) 6 micrograms of A. flavus DNA and composition #2 from Table 1, above, 6) 6 micrograms of A. flavus DNA and composition #3 from Table 1, above. 24 hours post infection the cells were assayed for TNF-alpha protein levels via ELISA.

The subject of another test is free DNA. Description: Free DNA binding, ethidium bromide displacement assay. The conditions noted are these: incubated with free DNA in a petri dish. On the procedure:
Voriconazole, moxifloxacin, composition A from Table 1, above, a combination of voriconazole and composition A and a combination of moxifloxacin and composition A were each individually incubated with free DNA in a petri dish with and without the addition of voriconazole or moxifloxacin. The percentage of free DNA bound was measured using an ethidium bromide displacement assay. See results in FIG. 1.
Compositions #1-3 from Table 1, above, were each individually incubated with free DNA in a petri dish at concentrations of 1% and 10% in PBS buffer. The percentage of free DNA bound was measured using an ethidium bromide displacement assay.

For `COc1c(N2C[C@@H]3CCCN[C@@H]3C2)c(F)cc2c(=O)c(C(=O)O)cn(C3CC3)c12` [moxifloxacin], in the test on TNF-alpha [1], the TNF-alpha protein levels is 450 picograms per milliliter. In turn, `C[C@@H](c1ncncc1F)[C@](O)(Cn1cncn1)c1ccc(F)cc1F` [voriconazole] registered a TNF-alpha protein levels with TNF-alpha [2] of 85 picograms per milliliter. For the same compound, in the test with free DNA, the “percentage of free DNA bound” value was determined as 0%.

These data come from patent US20260216063A1, “METHODS OF SUPPRESSING FREE DNA AND COMPOSITIONS THEREOF” (PS Therapy, Inc., priority 2023, published 2026).
